The source of these data is US20060258703A1, “Remedy for pruritus comprising piperidine derivative as the active ingredient” (ONO PHARMACEUTICAL CO., LTD., priority 2003, published 2006).

The assay relates to ovalbumin-induced eye scratching behavior in actively sensitized male Hartley guinea pigs. The assay is described as follows: inhibitory effect on eye itching using albumin induced eye itching model. As to conditions: for number of eye scratching times / eye scratching behavior inhibition ratio: 10 μL/eye instilled 30 min before ovalbumin, n=8; for number of eye scratching times: counted for 60 min, average; for eye scratching behavior inhibition ratio: ratio to control (average). The class given is in vivo, guinea pig. On the procedure: The inhibitory effect on eye itching of piperidine derivatives of the present invention was studied using albumin induced eye itching model.
1. The test of inhibitory effect on eye itching using albumin induced eye itching model
Aluminum hydroxide gel absorption ovalbumin (20 μg/mL)was dissolved in physiological saline solution, each solution ([…]) was injected subconjunctivally to the both eyeballs of five-week-old male Hartley guinea pigs to sensitize them actively. 14 days after sensitization, 1.0% (W/V) of ovalbumin physiological saline solution was instilled into both their eyes, 10 μL/eye, respectively.
As test compounds, a suspension of 0.01% (W/V) and 0.1% (W/V) of {4-cyano-4-[3-(cyclopentyloxy)-4-(difluoromethoxy)phenyl]piperidine-1-yl}acetic acid monohydrate (hereinafter, it is the compound A) in 0.1% hydroxypropylmethylcellulose was prepared and it was instilled into both eyes of the above-mentioned guinea pigs, 10 μL/eye, respectively, 30 minutes before the instillation of ovalbumin. 0.1% hydroxypropylmethylcellulose was used as control.
The behavior of guinea pigs for 60 minutes after ovalbumin instillation was video recorded. The inhibitory effect on eye itching was evaluated by counting each number of eye scratching times in case of instillation of each test compound solution and control. […] In addition, the number of example is eight. eye scratching behavior inhibition ratio=100−([the number of eye scratching times of the test compound]÷[the number of eye scratching times of control])×100

As to `N#CC1(c2ccc(OC(F)F)c(OC3CCCC3)c2)CCN(CC(=O)O)CC1.O` [Compound A, {4-cyano-4-[3-(cyclopentyloxy)-4-(difluoromethoxy)phenyl]piperidine-1-yl}acetic acid monohydrate], the “number of eye scratching times” value is, setting by setting: (0.01% (W/V) suspension in 0.1% hydroxypropylmethylcellulose) 44.6 times; (0.1% (W/V) suspension in 0.1% hydroxypropylmethylcellulose) 29.0 times. The “eye scratching behavior inhibition ratio” value is, setting by setting: (0.01% (W/V) suspension) 34.4%; (0.1% (W/V) suspension) 57.4%. For the same compound, the “number of eye scratching times compared to control (in words)” value (guinea pigs given 0.01% and 0.1% eye instillation, extent almost depends on concentration) is on record as “decreases significantly compared to control”.
